The target of data set [1] is T1, calcium-activated neutral thiolprotease (CANP) (Gallus gallus, UniProt P00789).
T1 construct: CANP prepared from a muscle of hereditary muscular dystrophy chicken; from tissue; host or cells: muscle of hereditary muscular dystrophy chicken
T1 sequence (P00789 1-705): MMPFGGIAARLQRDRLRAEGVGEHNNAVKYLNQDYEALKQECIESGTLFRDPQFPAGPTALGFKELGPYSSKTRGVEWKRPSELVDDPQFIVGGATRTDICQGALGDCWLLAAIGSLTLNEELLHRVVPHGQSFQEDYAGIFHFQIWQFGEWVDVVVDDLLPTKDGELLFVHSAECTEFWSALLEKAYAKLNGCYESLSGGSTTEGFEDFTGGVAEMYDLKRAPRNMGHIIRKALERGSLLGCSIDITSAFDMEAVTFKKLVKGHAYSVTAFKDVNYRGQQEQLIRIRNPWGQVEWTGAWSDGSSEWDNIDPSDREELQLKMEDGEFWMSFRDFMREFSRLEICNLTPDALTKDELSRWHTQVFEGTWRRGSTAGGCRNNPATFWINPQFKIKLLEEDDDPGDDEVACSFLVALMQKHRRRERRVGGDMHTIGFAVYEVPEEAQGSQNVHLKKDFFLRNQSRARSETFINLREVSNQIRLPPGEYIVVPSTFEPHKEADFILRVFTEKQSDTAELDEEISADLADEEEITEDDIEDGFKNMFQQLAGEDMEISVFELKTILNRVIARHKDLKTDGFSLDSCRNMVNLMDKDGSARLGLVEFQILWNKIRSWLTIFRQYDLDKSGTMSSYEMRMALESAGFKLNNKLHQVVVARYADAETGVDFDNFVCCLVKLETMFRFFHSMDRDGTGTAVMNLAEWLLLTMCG
In words: CANP inhibitory activity (method of Ishiura et al). Format: biochemical. The note with it: 50% inhibition as molar ratio to the enzyme; CANP from muscle of hereditary muscular dystrophy chicken. The procedure: Their muscular dystrophy inhibitory activity was assayed by the method of Ishiura et al, [J. of Biochem., 84, 225(1978)] using CANP prepared from a muscle of hereditary muscular dystrophy chicken, and the resulting value for 50% inhibition in the molar ratios for the enzyme expressed as ID50 (mole/mole) is shown in Table 1.

A further data set deals with T2, papain (Carica papaya, UniProt P00784).
T2 construct: purchased Sigma Chem. Co
T2 sequence (P00784 134-345): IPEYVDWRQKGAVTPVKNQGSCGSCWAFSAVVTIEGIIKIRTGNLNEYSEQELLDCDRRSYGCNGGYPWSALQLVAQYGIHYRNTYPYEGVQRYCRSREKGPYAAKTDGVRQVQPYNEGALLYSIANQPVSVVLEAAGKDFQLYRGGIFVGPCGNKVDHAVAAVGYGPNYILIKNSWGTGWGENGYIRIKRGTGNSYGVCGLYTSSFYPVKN
The experiment in a line: Papain inhibitory activity (method of K. Hanada et al). The format is biochemical. Conditions: papain 80 ug/ml, Sigma, 2 x cry. The procedure:
Papain inhibitory activity of the compounds of the present invention was assayed by the method of K. Hanada et al, [Argric. Biol. Chem., 42, No. 3, 523(1978)] using papain (80 ug/ml, Sigma Chem. Co., 2 x cry.).

Data set [2] can be described thus: Concentration of test compound in rat plasma after subcutaneous administration. The format is in vivo. The note with it: sc, 50 mg/kg, an hour after administration. The procedure: The compounds of the present invention are better absorbed by the subcutaneous route in mammals such as rats or rabbits, as compared with the epoxysuccinic acid derivatives of the German Patent Laid Open Application described above and Chemical Abstracts, 87, 68129a (1977). To determine absorption, these compounds were administered subcutaneously to rat at a dose of 50 mg/kg, and the concentration of the test compound in rat plasma at an hour after the administration was shown in Table 1.

This is an account of results in patent publication US4382889A, “Epoxysuccinic acid derivatives” (Taisho Pharmaceutical Co., Ltd., priority 1979, dated 1983).

Consider `COC(=O)[C@H](CCCN=C(N)N)NC(=O)[C@H](CC(C)C)NC(=O)C1OC1C(=O)O` (mixture of isomers) [Compound 43, N-(DL-3-transcarboxyoxirane-2-carbonyl)-L-leucyl-L-arginine methyl ester], for which the “CANP Inhibitory Activity ID50 (mole/mole)” value in data set [1] worked out at 100 mole/mole. Moreover, the “Papain ID50 (amount of inhibitor for 50% inhibition)” value on papain turned out to be 0.195 µg. The concentration at 1 h in data set [2] was determined as 7000 ng/mL.
`CC(C)C[C@H](NC(=O)[C@H](CC(C)C)NC(=O)C1OC1C(=O)O)C(=O)O` (mixture of isomers) [Compound 45, N-(DL-3-trans-carboxyoxirane-2-carbonyl)-L-leucyl-L-leucine]: the “CANP Inhibitory Activity ID50 (mole/mole)” value in data set [1] came to 64 mole/mole. The “Papain ID50 (amount of inhibitor for 50% inhibition)” value at papain was determined as 0.236 µg. Besides, the concentration at 1 h in data set [2] is 15000 ng/mL.
The corresponding values for `COC(=O)[C@@H]1CCCN1C(=O)[C@H](CC(C)C)NC(=O)C1OC1C(=O)OCc1ccccc1` (mixture of isomers) [Compound 19, N-(DL-3-trans-benzyloxycarbonyloxirane-2-carbonyl)-L-leucyl-L-proline methyl ester] are 23 mole/mole, 0.123 µg and 1500 ng/mL.
`COC(=O)[C@H](CC(C)C)NC(=O)[C@H](Cc1ccccc1)NC(=O)C1OC1C(=O)OCc1ccccc1` (stereo partly drawn) [Compound 36]: in data set [1], the “CANP Inhibitory Activity ID50 (mole/mole)” value came to 200 mole/mole. On papain, the “Papain ID50 (amount of inhibitor for 50% inhibition)” value stood at 0.595 µg. Further, the concentration at 1 h in data set [2] came to 1800 ng/mL.
